From publication PMC9828044 (RSC Advances, 2023)

What was measured:
MAO A = molecular target: T1, MAO A (Rattus norvegicus, UniProt P21396); assay: Monoamine oxidase A; assay type: biochemical; details: for selective inhibition toward MAO A: MAO A versus MAO B; for selective inhibition toward MAO A / dual inhibition on MAO A and MAO B: in words; for inhibition at 100 µM: read-out: MAO A % inhibition; for dual inhibition on MAO A and MAO B: both isoforms
T1 sequence (P21396 1-526): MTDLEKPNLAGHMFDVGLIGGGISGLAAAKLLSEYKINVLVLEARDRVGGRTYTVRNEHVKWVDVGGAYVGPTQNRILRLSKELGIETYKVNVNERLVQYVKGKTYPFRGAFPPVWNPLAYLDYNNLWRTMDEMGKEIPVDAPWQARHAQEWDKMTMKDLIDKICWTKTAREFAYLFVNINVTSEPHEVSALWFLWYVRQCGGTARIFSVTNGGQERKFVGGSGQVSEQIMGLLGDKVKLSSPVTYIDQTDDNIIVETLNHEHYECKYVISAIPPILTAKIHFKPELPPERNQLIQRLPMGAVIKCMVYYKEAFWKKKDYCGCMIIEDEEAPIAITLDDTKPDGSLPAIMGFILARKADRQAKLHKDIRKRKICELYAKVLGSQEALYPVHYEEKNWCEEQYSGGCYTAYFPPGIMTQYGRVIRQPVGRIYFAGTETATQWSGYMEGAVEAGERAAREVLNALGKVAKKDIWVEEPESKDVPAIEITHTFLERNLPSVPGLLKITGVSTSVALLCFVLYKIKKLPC

MAO B = molecular target: T2, MAO B (Rattus norvegicus, UniProt P19643); assay: Monoamine oxidase B; assay type: biochemical; details: for inhibition at 100 µM: read-out: MAO B % inhibition; for selective inhibition toward MAO B: MAO B versus MAO A, in words
T2 sequence (P19643 1-520): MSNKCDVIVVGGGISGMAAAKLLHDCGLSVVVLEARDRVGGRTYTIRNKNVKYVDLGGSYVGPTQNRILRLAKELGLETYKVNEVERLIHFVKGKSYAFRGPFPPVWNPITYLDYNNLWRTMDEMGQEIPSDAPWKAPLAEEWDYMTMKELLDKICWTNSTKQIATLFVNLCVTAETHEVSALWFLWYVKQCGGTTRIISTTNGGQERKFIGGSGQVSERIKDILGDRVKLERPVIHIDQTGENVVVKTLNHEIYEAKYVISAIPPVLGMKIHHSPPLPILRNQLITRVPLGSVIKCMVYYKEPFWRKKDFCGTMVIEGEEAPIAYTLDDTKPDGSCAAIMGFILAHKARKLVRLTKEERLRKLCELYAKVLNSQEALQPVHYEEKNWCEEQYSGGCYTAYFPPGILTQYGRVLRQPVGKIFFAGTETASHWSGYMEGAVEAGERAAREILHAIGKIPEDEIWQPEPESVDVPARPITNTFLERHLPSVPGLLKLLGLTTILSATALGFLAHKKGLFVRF

inhibition at 100 µM (MAO A) [%]	Compound	dual inhibition on MAO A and MAO B (MAO A)	also measured
	CC(=NN=C1CS(=O)(=O)N(C)c2ccccc21)c1ccc(C)s1 [9d, 1-Methyl-4-((1-(5-methylthiophen-2-yl)ethylidene)hydrazono)-3,4-dihydro-1H-benzo[c][1,2]thiazine 2,2-dioxide]		selective inhibition toward MAO A (MAO A): significant selective inhibition toward MAO A; inhibition at 100 µM (MAO B): 31.1%
28.4	CC(=NN=C1CS(=O)(=O)N(C)c2ccccc21)c1ccc(Br)s1 [9h, 4-((1-(5-Bromothiophen-2-yl)ethylidene)hydrazono)-1-methyl-3,4-dihydro-1H-benzo[c][1,2]thiazine 2,2-dioxide]		selective inhibition toward MAO B (MAO B): selective inhibition toward the MAO B enzyme
	COc1ccc2nc(Cl)c(C=NN=C3CS(=O)(=O)N(C)c4ccccc43)cc2c1 [7c, 4-(((2-Chloro-6-methoxyquinolin-3-yl)methylene)hydrazono)-1-methyl-3,4-dihydro-1H-benzo[c][1,2]thiazine 2,2-dioxide]		selective inhibition toward MAO A (MAO A): significant selective inhibition toward MAO A; inhibition at 100 µM (MAO B): 35.8%
	Cc1ccc2cc(C=NN=C3CS(=O)(=O)N(C)c4ccccc43)c(Cl)nc2c1 [7d, 4-(((2-Chloro-7-methylquinolin-3-yl)methylene)hydrazono)-1-methyl-3,4-dihydro-1H-benzo[c][1,2]thiazine 2,2-dioxide]	dual inhibition on MAO A as well as MAO B	
39.1	CC(=NN=C1CS(=O)(=O)N(C)c2ccccc21)c1cc(C)cs1 [9c, 1-Methyl-4-((1-(4-methylthiophen-2-yl)ethylidene)hydrazono)-3,4-dihydro-1H-benzo[c][1,2]thiazine 2,2-dioxide]		
39.8	CC(=NN=C1CS(=O)(=O)N(C)c2ccccc21)c1ccc([N+](=O)[O-])s1 [9i, 1-Methyl-4-((1-(5-nitrothiophen-2-yl)ethylidene)hydrazono)-3,4-dihydro-1H-benzo[c][1,2]thiazine 2,2-dioxide]		selective inhibition toward MAO B (MAO B): selective inhibition toward the MAO B enzyme
	CC(=NN=C1CS(=O)(=O)N(C)c2ccccc21)c1cc(Cl)sc1Cl [9k, 4-((1-(2,5-Dichlorothiophen-3-yl)ethylidene)hydrazono)-1-methyl-3,4-dihydro-1H-benzo[c][1,2]thiazine 2,2-dioxide]	dual inhibition on MAO A as well as MAO B	
38.8	CN1c2ccccc2C(=NN=Cc2cc3ccccc3nc2Cl)CS1(=O)=O [7a, 4-(((2-Chloroquinolin-3-yl)methylene)hydrazono)-1-methyl-3,4-dihydro-1H-benzo[c][1,2]thiazine 2,2-dioxide]		inhibition at 100 µM (MAO B): 43.6%
41.6	CC(=NN=C1CS(=O)(=O)N(C)c2ccccc21)c1sccc1Br [9f, 4-((1-(3-Bromothiophen-2-yl)ethylidene)hydrazono)-1-methyl-3,4-dihydro-1H-benzo[c][1,2]thiazine 2,2-dioxide]		selective inhibition toward MAO B (MAO B): selective inhibition toward the MAO B enzyme
	CC(=NN=C1CS(=O)(=O)N(C)c2ccccc21)c1ccc(Cl)s1 [9g, 4-((1-(5-Chlorothiophen-2-yl)ethylidene)hydrazono)-1-methyl-3,4-dihydro-1H-benzo[c][1,2]thiazine 2,2-dioxide]	dual inhibition on MAO A as well as MAO B	
38.5	CC(=NN=C1CS(=O)(=O)N(C)c2ccccc21)c1sccc1C [9b, 1-Methyl-4-((1-(3-methylthiophen-2-yl)ethylidene)hydrazono)-3,4-dihydro-1H-benzo[c][1,2]thiazine 2,2-dioxide]		
2.03 ± 0.91	CN1c2ccccc2C(=NN=Cc2cc3ccc(Cl)cc3nc2Cl)CS1(=O)=O [7f, 4-(((2,7-Dichloroquinolin-3-yl)methylene)hydrazono)-1-methyl-3,4-dihydro-1H-benzo[c][1,2]thiazine 2,2-dioxide]	dual inhibition on MAO A as well as MAO B	
	Cc1ccc2nc(Cl)c(C=NN=C3CS(=O)(=O)N(C)c4ccccc43)cc2c1 [7b, 4-(((2-Chloro-6-methylquinolin-3-yl)methylene)hydrazono)-1-methyl-3,4-dihydro-1H-benzo[c][1,2]thiazine 2,2-dioxide]	dual inhibition on MAO A as well as MAO B	
	COc1ccc2cc(C=NN=C3CS(=O)(=O)N(C)c4ccccc43)c(Cl)nc2c1 [7e, 4-(((2-Chloro-7-methoxyquinolin-3-yl)methylene)hydrazono)-1-methyl-3,4-dihydro-1H-benzo[c][1,2]thiazine 2,2-dioxide]	dual inhibition on MAO A as well as MAO B	
	CC(=NN=C1CS(=O)(=O)N(C)c2ccccc21)c1sccc1Cl [9e, 4-((1-(3-Chlorothiophen-2-yl)ethylidene)hydrazono)-1-methyl-3,4-dihydro-1H-benzo[c][1,2]thiazine 2,2-dioxide]		inhibition at 100 µM (MAO B): 41.9%
26.3	CC(=NN=C1CS(=O)(=O)N(C)c2ccccc21)c1cc(C)sc1C [9j, 4-((1-(2,5-Dimethylthiophen-3-yl)ethylidene)hydrazono)-1-methyl-3,4-dihydro-1H-benzo[c][1,2]thiazine 2,2-dioxide]		selective inhibition toward MAO B (MAO B): selective inhibition toward the MAO B enzyme
2.09 ± 0.89	CC(=NN=C1CS(=O)(=O)N(C)c2ccccc21)c1cccs1 [9a, 1-Methyl-4-((1-(thiophen-2-yl)ethylidene)hydrazono)-3,4-dihydro-1H-benzo[c][1,2]thiazine 2,2-dioxide]		
